Like-named read-outs stand apart in the source and are kept apart here.
Tests used:
Assay in all cases: malachite green phosphate release assay, fit to nonlinear noncompetitive inhibition
Type in all cases: biochemical
[1] = target: T1, E. coli FBPase (fructose-1,6-bisphosphatase) (Escherichia coli, UniProt P0A993, K104Q/R132I/Y210F/K218Q); conditions: allosteric Glc-6-P site; with respect to FBP; noncompetitive; Mg2+; pH 7.5, 25 C
T1 construct: gene fbp; full-length fbp in pET101/D-TOPO, reverse primer without stop (C-terminal vector tag with polyhistidine, no cleavage told), expressed in E. coli BL21 (DE3), Ni-NTA purified
T1 sequence (P0A993 whole entry K104Q/R132I/Y210F/K218Q): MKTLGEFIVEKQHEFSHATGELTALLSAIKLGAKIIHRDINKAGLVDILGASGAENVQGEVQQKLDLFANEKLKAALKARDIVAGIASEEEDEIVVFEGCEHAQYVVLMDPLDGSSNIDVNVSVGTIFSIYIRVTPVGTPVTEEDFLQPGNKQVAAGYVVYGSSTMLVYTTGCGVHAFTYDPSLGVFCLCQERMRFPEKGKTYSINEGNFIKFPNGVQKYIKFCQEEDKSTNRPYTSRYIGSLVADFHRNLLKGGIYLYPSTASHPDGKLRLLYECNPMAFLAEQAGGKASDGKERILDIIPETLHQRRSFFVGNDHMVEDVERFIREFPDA

[2] = target: T2, E. coli FBPase (fructose-1,6-bisphosphatase) (Escherichia coli, UniProt P0A993, Y210F/K218Q); conditions: allosteric Glc-6-P site, with respect to FBP, Mg2+, pH 7.5, 25 C
T2 construct: gene fbp; full-length fbp in pET101/D-TOPO, reverse primer without stop (C-terminal vector tag with polyhistidine, no cleavage told), expressed in E. coli BL21 (DE3), Ni-NTA purified
T2 sequence (P0A993 whole entry Y210F/K218Q): as the sequence (P0A993 whole entry K104Q/R132I/Y210F/K218Q) above, with Q104K, I132R counted along it

[3] = target: T3, E. coli FBPase (fructose-1,6-bisphosphatase) (Escherichia coli, UniProt P0A993, K218Q); conditions: allosteric Glc-6-P site, with respect to FBP, Mg2+, pH 7.5, 25 C
T3 construct: gene fbp; full-length fbp in pET101/D-TOPO, reverse primer without stop (C-terminal vector tag with polyhistidine, no cleavage told), expressed in E. coli BL21 (DE3), Ni-NTA purified
T3 sequence (P0A993 whole entry K218Q): as the sequence (P0A993 whole entry K104Q/R132I/Y210F/K218Q) above, with Q104K, I132R, F210Y counted along it

[4] = target: T4, E. coli FBPase (fructose-1,6-bisphosphatase) (Escherichia coli, UniProt P0A993, Y210F); conditions: allosteric Glc-6-P site, with respect to FBP, Mg2+, pH 7.5, 25 C
T4 construct: gene fbp; full-length fbp in pET101/D-TOPO, reverse primer without stop (C-terminal vector tag with polyhistidine, no cleavage told), expressed in E. coli BL21 (DE3), Ni-NTA purified
T4 sequence (P0A993 whole entry Y210F): as the sequence (P0A993 whole entry K104Q/R132I/Y210F/K218Q) above, with Q104K, I132R, Q218K counted along it

[5] = target: T5, E. coli FBPase (fructose-1,6-bisphosphatase) (Escherichia coli, UniProt P0A993)
T5 construct: gene fbp; full-length fbp in pET101/D-TOPO, reverse primer without stop (C-terminal vector tag with polyhistidine, no cleavage told), expressed in E. coli BL21 (DE3), Ni-NTA purified
T5 sequence (P0A993 1-332): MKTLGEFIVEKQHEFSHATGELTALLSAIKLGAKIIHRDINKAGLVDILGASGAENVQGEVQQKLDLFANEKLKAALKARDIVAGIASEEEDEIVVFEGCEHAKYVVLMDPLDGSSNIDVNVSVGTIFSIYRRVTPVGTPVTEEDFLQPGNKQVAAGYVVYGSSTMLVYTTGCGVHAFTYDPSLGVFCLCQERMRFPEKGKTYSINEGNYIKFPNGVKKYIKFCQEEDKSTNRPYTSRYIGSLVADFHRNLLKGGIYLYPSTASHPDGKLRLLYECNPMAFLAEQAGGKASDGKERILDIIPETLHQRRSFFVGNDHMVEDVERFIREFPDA
Description: malachite green phosphate release assay, fit to nonlinear noncompetitive inhibition on E. coli FBPase (fructose-1,6-bisphosphatase) | Comparison of inhibition constants of wild-type and mutant FBPase by the allosteric inhibitor, AMP. | Comparison of inhibition constant of wild-type and mutant FBPase by the allosteric inhibitor, Glc-6-P.

[6] = target: T6, E. coli FBPase (fructose-1,6-bisphosphatase) (Escherichia coli, UniProt P0A993, K104Q/K218Q/R132I/Y210F)
T6 construct: gene fbp; full-length fbp in pET101/D-TOPO, reverse primer without stop (C-terminal vector tag with polyhistidine, no cleavage told), expressed in E. coli BL21 (DE3), Ni-NTA purified
T6 sequence (P0A993 whole entry K104Q/R132I/Y210F/K218Q): as the sequence (P0A993 whole entry K104Q/R132I/Y210F/K218Q) above

[7] = target: T7, E. coli FBPase (fructose-1,6-bisphosphatase) (Escherichia coli, UniProt P0A993, K104Q/R132I)
T7 construct: gene fbp; full-length fbp in pET101/D-TOPO, reverse primer without stop (C-terminal vector tag with polyhistidine, no cleavage told), expressed in E. coli BL21 (DE3), Ni-NTA purified
T7 sequence (P0A993 whole entry K104Q/R132I): as the sequence (P0A993 whole entry K104Q/R132I/Y210F/K218Q) above, with F210Y, Q218K counted along it

[8] = target: T8, E. coli FBPase (fructose-1,6-bisphosphatase) (Escherichia coli, UniProt P0A993, R132I)
T8 construct: gene fbp; full-length fbp in pET101/D-TOPO, reverse primer without stop (C-terminal vector tag with polyhistidine, no cleavage told), expressed in E. coli BL21 (DE3), Ni-NTA purified
T8 sequence (P0A993 whole entry R132I): as the sequence (P0A993 whole entry K104Q/R132I/Y210F/K218Q) above, with Q104K, F210Y, Q218K counted along it

[9] = target: T9, E. coli FBPase (fructose-1,6-bisphosphatase) (Escherichia coli, UniProt P0A993, K104Q)
T9 construct: gene fbp; full-length fbp in pET101/D-TOPO, reverse primer without stop (C-terminal vector tag with polyhistidine, no cleavage told), expressed in E. coli BL21 (DE3), Ni-NTA purified
T9 sequence (P0A993 whole entry K104Q): as the sequence (P0A993 whole entry K104Q/R132I/Y210F/K218Q) above, with I132R, F210Y, Q218K counted along it

| Structure (SMILES) | Ki [1] | Ki [2] | Ki [3] | Ki [4] | Ki ([5]; allosteric Glc-6-P site, with respect to FBP, noncompetitive, Mg2+, pH 7.5, 25 C) | Ki [6] | Ki [7] | Ki [8] | Ki [9] | Ki [5] |
| --- | --- | --- | --- | --- | --- | --- | --- | --- | --- | --- |
| O=P(O)(O)OC[C@H]1OC(O)[C@H](O)[C@@H](O)[C@@H]1O (stereo partly shown) [Glc-6-P] | 21100 ± 2900 µM | 20400 ± 7300 µM | 14100 ± 3900 µM | 13100 ± 2900 µM | 800 ± 200 µM | – | – | – | – | – |
| Nc1ncnc2c1ncn2[C@@H]1O[C@H](COP(=O)(O)O)[C@@H](O)[C@H]1O [AMP] | – | – | – | – | – | 1680 ± 299 µM | 1460 ± 215 µM | 151 ± 12.9 µM | 419 ± 54.1 µM | 10.1 ± 0.8 µM |

Reference: publication PMC3395594, “Rational Engineering of Enzyme Allosteric Regulation through Sequence Evolution Analysis” (PLoS Computational Biology, 2012)
